Test results as given in patent US20250368963A1, “PROXIMAL-BIASED KIDNEY ORGANOIDS” (UNIVERSITY OF SOUTHERN CALIFORNIA, priority 2024, published 2025).
“Also recorded” adds a separate entry of the source.

What was measured:
[1] = test system: E12.5 mouse kidney explants; assay: Mouse kidney organ culture with inhibitors, immunofluorescence; assay type: cell-based; conditions: mouse kidney explants cultured 48 hours with inhibitor(s)
Protocol: Mouse kidney explants and culture: Pregnant female Swiss Webster mice were euthanized on day E12.5 of pregnancy via CO2 following appropriate University of Southern California IACUC approved protocol. Embryos were removed and placed into PBS before dissecting out kidneys for explant culture as described below. Mouse kidney organ culture: Kidneys were dissected from E12.5 embryos and cultured for 48 hours at 37° C./5% CO2 in DMEM. Treatment condition culture media was initially supplemented with 20 μM LY294002, 2 μM DAPT (Tocris 2634), or both, before 48 hours of culture, following prior studies. After culture, mouse kidney explants were prepared for immunofluorescent analyses as described below for organoids.

[2] = test system: human iPSC-derived kidney organoid nephrons; assay: Whole-mount immunofluorescence quantification of organoid nephrons; assay type: cell-based
[3] = test system: HNF4A-YFP control and PB organoids; assay: DAPT treatment of HNF4A-YFP organoids after Ly29 withdrawal; assay type: cell-based, human; conditions: DAPT 48 hours between days 12 and 14, control and PB conditions
Protocol: To determine whether HNF4A^+ cell differentiation is Notch-signaling dependent, the study treated HNF4A-YFP control and PB organoids with DAPT for 48 hours between days 12 and 14, after Ly29 withdrawal (FIGS. 16E-16F). […] In DAPT conditions, YFP− structures still developed but were HNF1B^+/JAG1^+/HNF4A− (FIG. 16E), indicating Notch signaling is required for the transition from HNF1B^+ to HNF4A^+ cells, as anticipated. PB organoids contained more HNF4A^+ structures than other conditions, and controls formed more HNF4A^+ structures than DAPT-treated conditions (pvalues <0.01) (FIG. 16G).

[4] = test system: human iPSC-derived kidney organoids; assay: Bulk mRNA-sequencing of whole kidney organoids; assay type: cell-based
Protocol: mRNA-sequencing and data analyses: Whole organoid samples (3 independent biological replicates per timepoint, per condition for differentiation days 10 and 12, and 2 replicates for differentiation days 14 and 18) were prepared and purified according to the RNeasy Mini Kit (Qiagen, 74104). Purified RNA was sent to Novogene for sequencing. Reads were aligned to the hg38 Ensembl 105 annotation using STAR version 2.7.10a. A noise-reduction filter was applied to keep genes in which the maximum count in at least one sample was greater than or equal to 10. Partek Flow version 10.0 was then used to normalize these raw feature counts following the transcripts per million (TPM) normalization method. After filtering genes with TPM values greater than or equal to 25 in at least one sample, Z-score averages were calculated and heatmaps were clustered using pheatmap. Separately, gene set enrichment analyses were performed specifically on Day 12 replicate samples by first normalizing noise-reduced feature counts using the DESeq2 median ratio method, as recommended for gene set enrichment analyses. Partek Flow version 10.0 was then subsequently used for gene set enrichment analyses. Data are deposited with GEO accession number GSE264217 and will be made publicly available as of the date of publication.

[5] = test system: kidney organoid nephrogenic cells; assay: Single-cell RNA-sequencing of kidney organoids; assay type: cell-based, human
Protocol: Kidney organoid cell dissociation: Approximately 6 organoids from multiple independent wells of both untreated and treated (48 hour culture with 10 μM LY294002 between days 10 and 12) conditions were collected at differentiation days 10, 12, 14, and 18 for single-cell RNA-sequencing, from separate differentiation batches. The organoids were dissociated using Accumax (Stem Cell Technologies, 07921) at 37° C./5% CO2 for 35 minutes and pipetted twenty times with a P-1000 wide-bore pipette tip every 5 minutes. The dissociation was neutralized by using a 2× volume of AutoMACS Running Buffer (Miltenyi Biotec, 130-091-221). Cells were pelleted by centrifugation at 4° C. for 3 minutes at 300×g. After resuspending the pellet in 2 mL of AutoMACS Running Buffer, cell suspensions were strained through 40 μm strainer (VWR, 21008-949), washing the filter with an additional 1 mL AutoMACS. The flow-through was pelleted, again at 300×g in a 4° C. for 3 minutes. […]
SPLiT-seq single-cell RNA-sequencing data collection and analyses: SPLiT-seq cell processing. […] Fixed cells were then stored at −80° C. until all samples were ready to be processed with the Evercode WT v2 single-cell RNA-sequencing platform (Parse Biosciences, ECW02030). […]

Row | Compound | Hnf4a expression [1] | nephron elongation and HNF1B/HES1 upregulation ([2]; day 12, cultured with DAPT, either with or without Ly29) | HNF4A-YFP [3] | HNF1B expression upregulated ([4]; RNA-sequencing, day 12, 48 hr treatment, vs control) [fold] | increase in JAG1 expression ([4]; RNA-sequencing, day 12, treated days 10-12, vs control) [fold] | increase in HNF4A transcript levels ([4]; bulk RNA-sequencing, day 18, vs controls) [fold] | increase in HNF4G transcript levels ([4]; bulk RNA-sequencing, vs controls) [fold] | HNF4A expression at day 12 ([4]; day 12, not detected) [TPM] | HNF1B+ nephron size increase ([2]; day 12 organoids, vs controls) [fold] | JAG1+ nephron size increase ([2]; day 12 organoids, vs controls) [fold] | abundance of HNF1B within each nephron, increase ([2]; day 12 organoids, vs controls) [fold] | sum total area of HNF4A+ organoid nephron segments, increase ([2]; day 18, n=3 organoids, vs controls) [fold] | average size of individual HNF4A+ segments, increase ([2]; day 18 organoids, vs controls) [fold] | total number of HNF4A+ segments per organoid, increase ([2]; day 18 organoids, vs controls) [fold] | share of all HNF4A+ cells that originated from the PB condition ([5]; days 12, 14, 18 integrated) [%] | share of all HNF4A+ proximal tubule precursors that originated from the PB condition ([5]; scaled for total cell numbers) [%]
1 | C[C@H](NC(=O)Cc1cc(F)cc(F)c1)C(=O)N[C@H](C(=O)OC(C)(C)C)c1ccccc1 [DAPT] | blocked Hnf4a expression | did not elongate or further upregulate HNF1B; also recorded: did not upregulate HNF1B or HES1 | reduced HNF4A-YFP | – | – | – | – | – | – | – | – | – | – | – | – | –
2 | O=c1cc(N2CCOCC2)oc2c(-c3ccccc3)cccc12 [Ly29, LY294002] | – | – | – | 2.88 | 1.78 | 2.31 | 1.72 | < 1.7 | 1.64 | 2.36 | 1.22 | 2.83 | 1.30 | 4.02 | 72.7 | 70.8
